From paper PMC5675004 (Cancer cell, 2015)
pIC50: −log10 of the molar value.

What was measured:
[1] = test system: PPT CGNPs expressing vismodegib-resistant SMO mutants; experiment: PPT CGNP proliferation, methyl-[3H]-thymidine incorporation; type: cell-based, mouse; details: for proliferation in the presence of SMO inhibitor: 500 nM of compound, SMO-mutant expressing cells
[2] = test system: SMO-T241M expressing CGNPs; experiment: as above; type: cell-based, mouse; details: vismodegib dose response after removal of SHH ligand
SMO-S387N = SMO-S387N (Homo sapiens, UniProt Q99835, S387N); experiment: Gli-luciferase based Hh reporter assay; type: cell-based; details: 1 μM vismodegib, C3H10T½ cells
SMO-D473H = details: mutation from relapsed metastatic MB; ref Yauch et al., 2009; cited from earlier work
[3] = test system: PPT CGNPs infected with SMO-C469Y; experiment: PPT CGNP proliferation, methyl-[3H]-thymidine incorporation; type: cell-based, mouse; details: 5 μM vismodegib
SMO-I408V = SMO-I408V (Homo sapiens, UniProt Q99835, I408V); experiment: [3H]-vismodegib binding to transfected HEK-293 cells; details: compared with SMO-WT at similar cell surface levels
advanced BCC patients = details: ref Chang and Oro, 2012; cited from earlier work
activating SMO mutants = experiment: [3H]-vismodegib binding to transfected HEK-293 cells; details: all activating mutants tested, cell surface expression comparable to SMO-WT
SMO-D384N = SMO-D384N (Homo sapiens, UniProt Q99835, D384N); experiment: Gli-luciferase based Hh reporter assay; type: cell-based; details: 1 μM vismodegib, C3H10T½ cells
SMO-N219D = SMO-N219D (Homo sapiens, UniProt Q99835, N219D); experiment: Gli-luciferase based Hh reporter assay; type: cell-based; details: 1 μM vismodegib, C3H10T½ cells
[4] = test system: SMO-A459V expressing CGNPs; experiment: PPT CGNP proliferation, methyl-[3H]-thymidine incorporation; type: cell-based, mouse; details: vismodegib dose response after removal of SHH ligand
[5] = test system: PPT CGNPs infected with SMO DBP mutants; experiment: as above; type: cell-based, mouse; details: high levels of vismodegib (>1 μM)
[6] = test system: SMO-W535L expressing CGNPs; experiment: as above; type: cell-based, mouse; details: vismodegib dose response after removal of SHH ligand
[7] = test system: PPT CGNPs infected with SMO-WT and Cre; experiment: as above; type: cell-based, mouse; details: for proliferation in the presence of SMO inhibitor: 500 nM of compound

Chain of SMO-S387N (Q99835 28-787 S387N): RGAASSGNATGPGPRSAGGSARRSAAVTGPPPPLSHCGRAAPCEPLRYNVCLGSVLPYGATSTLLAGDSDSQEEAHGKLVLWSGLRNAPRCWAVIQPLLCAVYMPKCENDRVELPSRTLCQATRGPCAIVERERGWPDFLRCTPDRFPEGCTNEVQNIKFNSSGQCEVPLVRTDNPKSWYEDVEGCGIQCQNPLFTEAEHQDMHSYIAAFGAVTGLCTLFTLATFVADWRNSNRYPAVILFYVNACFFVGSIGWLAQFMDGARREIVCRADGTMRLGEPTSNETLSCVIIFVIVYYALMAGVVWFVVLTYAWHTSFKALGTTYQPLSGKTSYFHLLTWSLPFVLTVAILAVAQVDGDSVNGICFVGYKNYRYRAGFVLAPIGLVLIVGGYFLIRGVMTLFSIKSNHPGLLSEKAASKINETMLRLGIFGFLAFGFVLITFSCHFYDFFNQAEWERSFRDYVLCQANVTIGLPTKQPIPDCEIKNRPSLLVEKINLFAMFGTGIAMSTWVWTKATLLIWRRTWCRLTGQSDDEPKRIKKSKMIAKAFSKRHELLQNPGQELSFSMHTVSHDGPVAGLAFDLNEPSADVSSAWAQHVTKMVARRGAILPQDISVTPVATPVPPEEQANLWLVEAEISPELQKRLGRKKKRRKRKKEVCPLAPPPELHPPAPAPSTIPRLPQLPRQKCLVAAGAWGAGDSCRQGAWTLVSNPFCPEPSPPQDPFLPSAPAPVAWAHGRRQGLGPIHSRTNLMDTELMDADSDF
Chain of SMO-I408V (Q99835 28-787 I408V): as the sequence (Q99835 28-787 S387N) above, with N360S, I381V counted along it
Chain of SMO-D384N (Q99835 28-787 D384N): as the sequence (Q99835 28-787 S387N) above, with D357N, N360S counted along it
Chain of SMO-N219D (Q99835 28-787 N219D): as the sequence (Q99835 28-787 S387N) above, with N192D, N360S counted along it

With `Cc1sc2c(c1C)C(c1ccc(Cl)cc1)=N[C@@H](CC(=O)OC(C)(C)C)c1nnc(C)n1-2` [JQ1] the “proliferation in the presence of bromodomain inhibitor” value ([1]; 1 μM JQ1) was “reduced proliferation”.

For `CS(=O)(=O)c1ccc(C(=O)Nc2ccc(Cl)c(-c3ccccn3)c2)c(Cl)c1` [vismodegib], the “proliferation in the presence of vismodegib” value (“proliferation … of vismodegib” below) [2] is listed as “continued to proliferate at high concentrations of vismodegib”, the “sensitivity to vismodegib compared to SMO-WT” value (SMO-S387N) is listed as “reduced sensitivity” and the “drug binding in vitro” value (SMO-D473H) is listed as “abrogate drug binding”. The “proliferation … of vismodegib” value [3] was “continued to proliferate at near untreated levels”, the “[3H]-vismodegib binding” value (SMO-I408V) was “impaired vismodegib binding” and the “estimated incidence of secondary, or acquired, resistance in BCC” value (advanced BCC patients) was ~ 20 % per year. For the same compound, the vismodegib binding (activating SMO mutants) was “impaired vismodegib binding”, the “sensitivity to vismodegib compared to SMO-WT” value (SMO-D384N) was “reduced sensitivity” and the “sensitivity to vismodegib compared to SMO-WT” value (SMO-N219D) was “reduced sensitivity”. The “proliferation … of vismodegib” value [4] was “continued to proliferate at high concentrations of vismodegib”, the “proliferation … of vismodegib” value [5] was “continuing to proliferate at high levels of vismodegib” and the “proliferation … of vismodegib” value [6] was “continued to proliferate at high concentrations of vismodegib”. For the same compound, the pIC50 ([7]; Mus musculus, read-out: IC50, proliferation) was roughly 7.66 and the “concentration at which proliferation was maximally inhibited” value ([7]; after removal of SHH ligand) was 100 nM.

With `CN(C(=O)c1ccc(F)cc1C(F)(F)F)C1CCN(c2nnc(-c3ccnn3C)c3ccccc23)CC1` [LY2940680] the “proliferation in the presence of SMO inhibitor” value (shortened to “proliferation … of SMO inhibitor”) [1] was “continued to proliferate, albeit to differing extents” and the “proliferation … of SMO inhibitor” value [7] was “similarly inhibited the proliferation”.

With `Cc1c(C(=O)Nc2ccc(N3C[C@@H](C)O[C@@H](C)C3)nc2)cccc1-c1ccc(OC(F)(F)F)cc1` [LDE225, sonidegib] the “proliferation … of SMO inhibitor” value [1] was “continued to proliferate, albeit to differing extents” and the “proliferation … of SMO inhibitor” value [7] was “similarly inhibited the proliferation”.
